Patent US20220274967A1, “BCAT MODULATION” (Icagen, LLC, priority 2019, published 2022)

Experiments:
BCAT2 = target: T1, BCAT2 (Homo sapiens, UniProt O15382); assay: BCAT2 enzyme inhibition (human); type: biochemical
T1 sequence (O15382 28-392): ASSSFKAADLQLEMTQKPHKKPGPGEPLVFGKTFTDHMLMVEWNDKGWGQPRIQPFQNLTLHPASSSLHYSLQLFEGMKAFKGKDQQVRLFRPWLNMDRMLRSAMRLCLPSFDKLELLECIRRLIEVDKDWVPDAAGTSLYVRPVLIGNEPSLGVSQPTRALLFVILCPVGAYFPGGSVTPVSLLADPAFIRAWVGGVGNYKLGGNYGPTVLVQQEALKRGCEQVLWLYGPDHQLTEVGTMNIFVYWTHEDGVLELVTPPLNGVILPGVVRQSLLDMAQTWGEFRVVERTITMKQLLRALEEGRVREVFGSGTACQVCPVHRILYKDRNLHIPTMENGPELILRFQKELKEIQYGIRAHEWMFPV
How it was run: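 Cell-free coupled fluorescent assay: human BCATm converts branched-chain amino acids and α-ketoglutarate to L-glutamate, which L-glutamate oxidase and HRP link to resorufin formation from Amplex Red; activity taken as reduced glutamate signal.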

[1] = 3-HIB assay in vitro, direct MS assay of conditioned media; type: cell-based, human; details: Homo sapiens, 24 h, GM00371 cells, read-out: 3HIB INHIBITION IC50 (μM) MEAN GM00371 cells Direct MS Assay
Method: Cell Plating: Cells (Coriell Institute GM00371 cells) were plated (96-well clear bottom sterile plate; Greiner 655098) at 10,000 cells/0.1 mL in Eagle's minimum essential medium (EMEM)/15% FBS (Gibco 16000-044) with a Combi dispenser in a cell culture hood and incubated at 37° C. and 5% CO2 overnight.
Compound Dilution: Compound were prepared as 33.3× intermediate dilution in DMSO in 96 well round polystyrene plates. For 30 μM final maximum start with 30 μL of 10 mM in DMSO. 10-12 1:3 serial dilutions were prepared from left to right (20 μL+40 μL DMSO). A 10× secondary dilution was prepare in EMEM by taking 7.5 μL 33.3× and transfer to replicate 96 well round polystyrene plates and then adding 242.5 μL EMEM A 1× final dilution in EMEM was prepared by taking 50 μL 10× dilution and transferring to replicate 96 well polypropylene assay block (Costar 3956) and adding 450 μL EMEM A control was prepared for maximal compound inhibition by taking 20 μL 10 mM Reference Compound A and adding 40 μL DMSO for a concentration of 3.3 mM To 7.5 μL of the 3.3 mM Reference Compound A solution and added 242.5 μL EMEM to make a 100 μM solution. The subsequent Reference Compound A solution was diluted with EMEM to achieve a final concentration of 10 μM. The structure of Reference Compound A is:
A control was prepared for maximal compound toxicity by taking 7.5 μL Reference Compound B and 242.5 μL EMEM to make […]. 50 μL of that 100 μM Reference Compound B solution was combined with 450 μL EMEM to achieve a concentration of 30 μM. The structure of Reference Compound B is
A DMSO Control was prepared by dilution 7.5 μL with 242.5 μL EMEM and taking 50 μL of the subsequent solution and diluting with 450 μL EMEM.
Compound Treatment: Media was aspirated from the cells and 100 μL of D-PBS (ThermoFisher 14190144) was added and then removed. 100 μL of diluted compound was added to the cells in the place and the cells were incubated at 37° C. and 5% CO2 for 24 hours.
Collection of Conditioned Media: For 3HIB MS detection: 20 μL conditioned media was removed from the cells and was transferred to a labeled replicate 96 well polypropylene assay plate (VWR 62408-946). And the plate was heat sealed and stored at −80° C.
3HIB Derivatization (Generalized SOP): The media collected for 3HIB MS detection was derivatized under the following conditions. Buffer: 0.1M 1-Ethyl-3-(3-dimethylaminopropyl)carbodiimide (EDC) dissolved in 0.1 M 2-(N-morpholino)ethanesulfonic acid ([…]) adjusted to pH 5.6. Buffer prep: weighed 10.6 g MES (Sigma #M-5287) per 500 mL HPLC grade H2O. Stored at 4° C.; 0.1M EDC: Weighed 1.971 g EDC (#E-1769) per 100 mL MES. Adjusted pH to 5.6 with ˜40 drops of 1N NaOH and stored at 4° C. Buffer has a short half-life should be used within two weeks.
Derivatization: To 20 μL sample was added 60 μL 5 uM 3HIB-4C13 internal standard followed by 20 μL EDC in MES and 100 μL MES. The plate was sealed and incubate at 50° C. for […] then centrifuged at 4000 rpm at 6° C. for 10 minutes. LC-MS analysis was then conducted and the data was processed using standard methods.

GM00371 cells = assay: Viability assay (Cell titer glo) in the 3-HIB assay; type: cell-based, human; details: Homo sapiens, 24 h, read-out: 3HIB INHIBITION IC50 (μM) MEAN GM00371 cells Viablility Assay
How it was run: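 GM00371 cells (10,000/well, EMEM/15% FBS) were exposed for 24 h at 37 °C to compounds in 1:3 serial dilution from 30 μM top concentration in EMEM. Reference Compound B at 30 μM served as maximal-toxicity control. Viability read as CellTiter-Glo luminescence.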

BCAT1 = target: T2, BCAT1 (Homo sapiens, UniProt P54687); assay: BCAT1 enzyme inhibition (human), Glutamate Glo luminescence; type: biochemical
T2 sequence (P54687 1-386): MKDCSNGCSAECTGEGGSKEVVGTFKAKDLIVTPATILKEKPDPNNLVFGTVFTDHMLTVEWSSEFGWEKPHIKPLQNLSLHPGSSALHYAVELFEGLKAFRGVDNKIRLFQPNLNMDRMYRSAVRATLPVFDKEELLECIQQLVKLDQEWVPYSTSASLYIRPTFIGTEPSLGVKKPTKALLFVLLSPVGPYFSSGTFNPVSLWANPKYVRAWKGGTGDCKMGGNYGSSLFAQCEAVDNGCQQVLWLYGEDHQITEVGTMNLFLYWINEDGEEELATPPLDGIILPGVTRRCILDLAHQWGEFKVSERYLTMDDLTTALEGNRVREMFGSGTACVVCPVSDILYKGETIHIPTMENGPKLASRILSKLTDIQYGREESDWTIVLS
Method: The BCAT1 inhibitory activity of selected compounds of the present disclosure were also evaluated. Compounds were prepared as up to 10 mM stock solutions generally using DMSO as the vehicle. 10-point dose response curves were generated using the Echo-550 (Labcyte) acoustic dispenser. Compound source plates ([…]) were made by serially diluting compound stocks to create 1 mM, 0.1 mM, and 0.01 mM solutions in DMSO into Echo certified LDV plates. The Echo then serially spotted 100% DMSO stock solutions into source dose response plates to generate a semi-log fold dilution scheme. 100% DMSO was added to the spotted dose response plates to bring the final volume to 5 μL, creating a 333× stock plate. 120 nL of the dose response stock plate was then spotted into the assay plate. 10 μL of assay buffer (50 mM Tris with 0.05% TWEEN-20) was then added to the plates resulting in a 4× working concentration in the assay plate. Final assay test concentration range was 3 μM to 0.0001 μM with a final DMSO concentration of 0.3%.
BCAT1 enzyme stock was first diluted to a 4× working concentration of 0.24 μg/mL in assay buffer (final assay concentration is 0.06 ug/ml). 10 μL of the 4×BCAT1 solution was then added to the previously prepared assay plate containing test compound or controls, and incubated at room temperature, protected from light, for either 10 or 60 minutes. After the compound incubation period, 20 μL of assay buffer plus 2× substrate is added to all wells (Final assay concentration of substrates is 300 μM L-leucine and 250 μM alpha-ketoglutaric acid). Enzyme reaction was then incubated for 10 minutes at room temperature. After the 10 minute incubation, the enzymatic reaction was halted with the addition of 5 μL of 0.6N HCl and incubated for 1 min. 5 μL of 1M Tris (pH 8.0) was then added to neutralize pH. 12.5 μL of the quenched assay volume was then transferred to a white, 384 well plate and 12.5 μL of Glutamate detection reagent was added (detection reagent prepared per Promega Glutamate Glo kit instructions). Plates were then incubated for 30 minutes at room temperature, protected from light. After glutamate detection incubation period, luminescence was read on BMG Novostar and relative light units was measured and exported for analysis.
Compound modulation of BCAT1 enzymatic activity was determined as follows. IC50 values were calculated in ActivityBase, using a 4-parameter fit equation. Data was normalized to maximum inhibition form the reference agent VS558CSA (at 10 μM). Relative light units were exported for analysis and % inhibition values for each well were calculated using the following formula: […]

Row | SMILES | IC50 (BCAT2) [nM] | IC50 [1] [µM] | IC50 (GM00371 cells) [µM] | IC50 (BCAT1) [nM]
1 | CNC(=O)c1ccc2c(c1)nc(-c1c(F)cccc1F)n2[C@H]1CCC[C@@H](NC(=O)c2ccc(C#N)s2)C1 [Compound 174] | < 100 | 0.1 to 0.5 | 0.5 to 1 | 
2 | CNC(=O)c1ccc2c(c1)nc(-c1ccc(F)cc1F)n2[C@H]1CCC[C@@H](NC(=O)c2ccc(Br)s2)C1 [Compound 176] | < 100 | 0.1 to 0.5 | 0.1 to 0.5 | 
3 | CNC(=O)c1ccc2c(c1)nc(-c1ccccc1OC)n2[C@H]1CCC[C@@H](NC(=O)c2ccc(Br)s2)C1 [Compound 126] | < 100 | 0.1 to 0.5 | ≥ 1 | 
4 | CNC(=O)c1ccc2c(c1)nc(-c1ncccc1C#N)n2[C@H]1CCC[C@@H](NC(=O)c2ccc(Cl)s2)C1 [Compound 192] | < 100 | 0.5 to 1 | 0.5 to 1 | 
5 | CNC(=O)c1ccc2c(c1)nc(-c1ncccc1C#N)n2[C@H]1CCC[C@@H](NC(=O)c2ccc(C#N)s2)C1 [Compound 178] | < 100 | ≥ 1 | ≥ 1 | 
6 | CNC(=O)c1ccc2c(c1)nc(-c1ccccn1)n2[C@@H]1CCC[C@H](NC(=O)c2ccc([N+](=O)[O-])s2)C1 [Compound 107] | 500 to 1000 | ≥ 1 | ≥ 1 | 
7 | O=C(N[C@H]1CCC[C@@H](n2c(-c3ccccn3)nc3cc(C(F)(F)F)ccc32)C1)c1ccc(Br)s1 [Compound 140] | 100 to 500 | 0.5 to 1 | 0.5 to 1 | 
8 | CNC(=O)c1ccc2c(c1)nc(-c1ccccn1)n2[C@H]1CCC[C@@H](NC(=O)c2ccc(Cl)s2)C1 [Compound 141] | < 100 | ≥ 1 | ≥ 1 | 
9 | CNC(=O)c1ccc2c(c1)nc(-c1ccc(F)cc1O)n2[C@H]1CCC[C@@H](NC(=O)c2ccc(C#N)s2)C1 [Compound 188] | < 100 | 0.1 to 0.5 |  | 
10 | CNC(=O)c1ccc2c(c1)nc(-c1c(O)cccc1F)n2[C@H]1CCC[C@@H](NC(=O)c2ccc(C#N)s2)C1 [Compound 172] | < 100 | 0.1 to 0.5 | 0.1 to 0.5 | 
11 | CNC(=O)c1ccc2c(c1)nc(-c1ccccc1OC)n2[C@H]1CCC[C@@H](NC(=O)c2ccc(C#N)s2)C1 [Compound 124] | < 100 | ≥ 1 | ≥ 1 | 
12 | CNC(=O)c1ccc2c(c1)nc(-c1cccs1)n2[C@H]1CCC[C@@H](NC(=O)c2ccc(C#N)s2)C1 [Compound 181] | < 100 | ≥ 1 | ≥ 1 | 
13 | CNC(=O)c1ccc2c(c1)nc(-c1ccccc1NC(C)=O)n2[C@H]1CCC[C@@H](NC(=O)c2ccc(Br)s2)C1 [Compound 129] | 100 to 500 | ≥ 1 | ≥ 1 | 
14 | CNC(=O)c1ccc2c(c1)nc(-c1ncccc1F)n2[C@H]1CCC[C@@H](NC(=O)c2ccc(C#N)s2)C1 [Compound 198] | < 100 |  | ≥ 1 | 100 to 500
15 | CNC(=O)c1cc2nc(-c3ccccn3)n(C3COCC(NC(=O)c4ccc(Br)s4)C3)c2cc1F (stereo not shown) [Compound 234, 1-(5-(5-bromothiophene-2-carboxamido)tetrahydro-2H-pyran-3-yl)-6-fluoro-N-methyl-2-(pyridin-2-yl)-1H-benzo[d]imidazole-5-carboxamide] | < 100 |  | ≥ 1 | 100 to 500
16 | CNC(=O)c1ccc2c(c1)nc(-c1sccc1C)n2[C@H]1CCC[C@@H](NC(=O)c2ccc(Br)s2)C1 [Compound 169] | < 100 |  | ≥ 1 | ≥ 1000
17 | CNC(=O)c1cc2nc(-c3ccccc3C)n([C@H]3CCC[C@@H](NC(=O)c4ccc(Cl)s4)C3)c2cc1F [Compound 205] | < 100 |  | ≥ 1 | 100 to 500
18 | CNC(=O)c1ccc2c(c1)nc(-c1cccs1)n2[C@H]1CCC[C@@H](NC(=O)c2ccc(Cl)s2)C1 [Compound 189] | < 100 | 0.1 to 0.5 |  | 
19 | CNC(=O)c1ccc2c(c1)nc(-c1ccccc1[N+](=O)[O-])n2C1CCCC(NC(=O)c2ccc(C#N)s2)C1 (stereo not shown) [Compound 200] | < 100 |  | ≥ 1 | 100 to 500
20 | CNC(=O)c1cc2nc(-c3cccc(F)c3)n(C3CCC[C@@H](NC(=O)c4ccc(F)s4)C3)c2cc1F (stereo partly shown) [Compound 225] | < 100 |  | ≥ 1 | ≥ 1000
